For experiment [1], the system named is Huh-7. Briefly: MTT cell proliferation assay, Huh-7. In kind it is cell-based. As to conditions: tumor cells with normal FGFR expression (Huh-7, A549 of Table 2).
Experiment [2] deals with A549. Briefly: cells. The conditions noted are these: Homo sapiens, A549, 96 h, read-out: Anti-proliferation IC50 A549.
Experiment [3] has as its target T1, FGFR3 (Homo sapiens, UniProt P22607).
T1 construct: made in house; host or cells: Escherichia coli
Briefly: HTRF enzyme activity test, FGFR3. The format is biochemical. For orientation: TR-FRET usually uses a lanthanide donor and a delayed reading to cut background.
Procedure: In the present disclosure, the homogeneous time-resolved fluorescence (HTRF) technology was used to evaluate an inhibitory effect of a compound on the four subtypes FGFR1, FGFR2, FGFR3, and FGFR4. FGFR1, FGFR2, FGFR3, and FGFR4 prokaryotic expression vectors were first constructed; and when the prokaryotic expression vectors were identified as correct, FGFR proteins were expressed and purified on a large scale in an Escherichia coli (E. coli) system, and protein concentrations were determined. Resulting proteins were stored in aliquots. Before an enzyme activity test was started, cisbio HTRF KinEA (62TK0PEB) was used to pre-dilute each component required in an enzyme activity system with an enzyme activity buffer to a required working concentration. A 384-well plate (66PL384025) was prepared, 5 μL of a protein solution, 1 μL of a compound, and 2 μL of a substrate were added to each well, and 2 μL of ATP was finally added to initiate a reaction. Three parallel experiments were set for each concentration. […] The 384-well plate was sealed and incubated at room temperature for about 1 h. […] Finally, the TECAN infinite M1000PRO multi-function microplate reader was used to detect a fluorescence signal, an inhibition rate was calculated, and an IC50 value was fitted with GraphPad Prism 7.0.

T1 sequence (P22607 23-806): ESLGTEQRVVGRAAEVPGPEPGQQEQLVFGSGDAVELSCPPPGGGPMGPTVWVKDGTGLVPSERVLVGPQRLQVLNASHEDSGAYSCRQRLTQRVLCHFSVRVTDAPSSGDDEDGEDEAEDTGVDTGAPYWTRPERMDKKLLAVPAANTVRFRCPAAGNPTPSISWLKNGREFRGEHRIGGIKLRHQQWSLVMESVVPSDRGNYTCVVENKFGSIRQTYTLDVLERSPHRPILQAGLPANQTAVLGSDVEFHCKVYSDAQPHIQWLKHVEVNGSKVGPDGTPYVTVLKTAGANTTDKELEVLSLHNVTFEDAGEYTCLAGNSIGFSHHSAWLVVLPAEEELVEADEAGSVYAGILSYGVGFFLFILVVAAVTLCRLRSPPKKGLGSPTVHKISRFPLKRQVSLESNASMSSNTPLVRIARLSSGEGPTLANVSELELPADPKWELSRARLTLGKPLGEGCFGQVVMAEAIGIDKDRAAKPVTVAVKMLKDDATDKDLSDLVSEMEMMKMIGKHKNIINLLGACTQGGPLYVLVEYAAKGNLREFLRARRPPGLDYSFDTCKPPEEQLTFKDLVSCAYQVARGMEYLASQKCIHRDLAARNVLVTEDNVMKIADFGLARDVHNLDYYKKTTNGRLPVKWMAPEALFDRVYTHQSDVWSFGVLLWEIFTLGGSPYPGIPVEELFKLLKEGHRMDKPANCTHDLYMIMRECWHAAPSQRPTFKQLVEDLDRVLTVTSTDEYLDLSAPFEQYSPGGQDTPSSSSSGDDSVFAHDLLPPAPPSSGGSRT

With `COc1cc(OC)cc(-c2nn(CCCCCN3CCN(C(=O)/C=C/C(F)(F)F)CC3)c3ncnc(N)c23)c1` [Compound 36], the “inhibitory effect on tumor cells with normal FGFR expression (in words)” value in experiment [1] is “no obvious inhibitory effect”. Further, the IC50 in experiment [2] was greater than 10 µM.
Take `C=CC(=O)N1CCN(CCCCCn2nc(-c3cccc(OCc4ccccc4)c3)c3c(N)ncnc32)CC1` [Compound 26]: in experiment [3], the IC50 was greater than 5000 nM.

The record behind these values is patent US20230159537A1, “COMPOUND, PREPARATION METHOD THEREOF, AND USE THEREOF IN PREPARATION OF ANTI-CANCER DRUG” (TIANJIN JIKUN MEDICAL TECHNOLOGY CO., LTD., priority 2020, published 2023).
